Results on two molecules are retold here after US6677309B1, “Anti-cancer drug aldehyde conjugate drugs with enhanced cytotoxicity compounds, compositions and methods” (University Technology Corporation, priority 1997, dated 2004).

Data set [1] in a line: Stability in DMSO and DMSO/water, NMR or HPLC. In kind it is physicochemical. The conditions noted are these: HPLC. As for the experimental part: Crystalline dimeric formaldehyde conjugate of daunorubicin (2.8 mg, 2.6 μmol) was dissolved in 500 μL of DMSO-d6 (stored over 3 A molecular sieves) and analyzed by 400 MHz, ^1H NMR. […] Upon addition of 25 μL of D2O to the 500 μL DMSO-d6 sample, the dimeric formaldehyde conjugate of daunorubicin reacted over a 24 h period to form an equilibrium mixture consisting of 67% dimeric formaldehyde conjugate of daunorubicin and 32% of an intermediate. Because of the complexity of the spectrum, a structure could not be assigned to the intermediate; however, the intermediate appeared to have an oxazolidine ring. Upon addition of 3 equiv of hydrochloric acid in 130 μL of deuterium oxide, hydrolysis to daunorubicin-HCl was complete. The hydrochloric acid solution was prepared by the addition of 10 μL of concentrated HCl to 990 μL of D2O. The formaldehyde released from the dimeric formaldehyde conjugate of daunorubicin was detected as its hydrate. The final product was identified as daunorubicin by comparison of the NMR spectrum with that of a sample of daunorubicin plus 3 equiv of HCl. Further, the final product was isolated by removal of all volatile components under vacuum (0.1 Torr), and its ^1H NMR spectrum was identical to that of daunorubicin-HCl.
Amorphous dimeric formaldehyde conjugate of daunorubicin, when worked up in methylene chloride, was stable in DMSO for at least 4 days. It hydrolyzed with added D2O and hydrochloric acid in a manner similar to that of the crystalline material. When worked up in chloroform, amorphous dimeric formaldehyde conjugate of daunorubicin had less stability in DMSO, presumably due to traces of HCl from the chloroform.
A 1.3 mg sample of N-acetyl-3′-N,4′-O-methylenedaunorubicin was dissolved in […] of DMSO and analyzed over time by HPLC. […] At this time, […] of water was added to the DMSO/N-acetyl monomeric formaldehyde conjugate of daunorubicin solution, establishing a 50:50 DMSO:water mixture (v/v). In this solution, the N-acetyl-3′-N,4′-O-methylenedaunorubicin remained 91% intact (9% degradation to daunorubicin) over a period of 6 days, based upon the HPLC analysis.
A pH 6 triethyl ammonium acetate solution containing 13.1 μmol of epidoxorubicin-HCl and 6.6 mmol of […] was allowed to react in the dark at 25° C. for 30 min. The mixture was then extracted with chloroform with vigorous stirring for 20 min. The chloroform solution was dried over sodium sulfate and the chloroform removed by rotary evaporation. The resulting dry solid was redissolved in 1.0 mL of chloroform. To this was added 10 mL of n-hexane. After 2 days, a large amount of precipitate had formed, which was washed with 3×5 mL of n-hexane, followed by 4×1 mL of water.
The sample was maintained at ambient temperature for 2 h; after this period no change in the spectrum was observed. […] A stock 122 mM solution of HCl in D2O was prepared by adding concentrated hydrochloric acid to D2O. […] Complete hydrolysis occurred upon addition of ca. 2-3 equiv of HCl. A similar experiment was performed using HCl in H2O. […] This solution was incubated at 37° C. for 24 h prior to NMR analysis.

In another data set the test system is MCF-7/ADR cells. Kind of data set: In vitro cytotoxicity, colony formation by crystal violet assay, MCF-7/ADR. As for the experimental part: (§1) The term IC50 as used herein refers to the concentration of drug which inhibits cell growth by 50%, i.e., 50% of cells are viable at the IC50 concentration relative to a no-drug control.
(§2) Cells were incubated with drug for 3 h in RPMI (Roswell Park Memorial Institute) 1640 media containing 10% fetal bovine serum and 1% DMSO. Plates, were developed using the crystal violet assay. […] In all cases percent survival was determined by the extent of colony formation six days after drug treatment.
(§3) All tissue culture materials were obtained from Gibco Life Technologies (Grand Island, N.Y.) unless otherwise stated. MCF-7 breast cancer cells were obtained from American Type Culture Collection (Rockville, Md.). […] Both cell lines were maintained in vitro by serial culture in phenol red-free RPMI Media 1640 supplemented with 10% fetal bovine serum (Gemini Bio-Products, Calbasas, Calif.), L-glutamine (2 mM), HEPES buffer (10 mM), penicillin (100 units/mL), and streptomycin (100 μg/mL). […] Cells were maintained at 37° C. in a humidified atmosphere of 5% CO2 and 95% air.
(§4) Cells were dissociated with trypsin-EDTA, counted, and suspended in growth media to a concentration of 5×10^3 cells/mL. Cell suspensions were dispensed in 200 μL aliquots into 96-well tissue culture plates. Plates were then incubated for 24 h at 37° C. in a humidified atmosphere of 5% CO2 and 95% air. The media was replaced with 180 μL of growth media prior to addition of the cytotoxic agents.
(§5) Concentrations were then corrected by measuring the solution absorbance at 480 nm (ε=11,500/mole anthracycline). The solutions were then serially diluted in DMSO to give a series of 100× working concentration solutions. For each concentration, the 100× solution was diluted 1:10 in serum-free RPMI Media 1640. 20 μL of the resulting […] solution was immediately added to the appropriate lane. Additionally, one lane was treated with 20 μL of 10% DMSO in serum-free RPMI (no drug) and one lane replaced with 200 μL of 1.5 M Tris buffer (no cells). The cells were incubated at 37° C. for 3 h. The drug solutions were removed and 200 μL of fresh growth media was added to each well.
(§6) The extent of colony formation was determined by use of a crystal violet staining assay (Gilles, R. J. et al. (1986), “Determination of cell number in monolayer cultures,” Anal. Biochem. 159:109-113; Reile, H. et al. (1990), “Computerized determination of growth kinetic curves and doubling times from cells in microcultures,” Anal. Biochem. 187:262-267). […] The cells were then stained with 75 μL of 0.1% crystal violet in deionized water for 30 min. […] The plates were blotted dry and 200 μL of 70% ethanol in water was added to each well to solublize the dye. The plates were stored at 4° C. until solubilization was complete (about 4 h). The optical density of each well was measured on an ELISA plate reader at 588 nm. Relative colony sizes were determined by comparison of the drug treated lanes to the control lanes.
(§7) MCF-7 breast cancer cells were obtained from American Type Culture Collection (Rockville, Md.). MCF-7/ADR adriamycin resistant breast cancer cells were a gift of Dr. William W. Wells (Michigan State University). Both cell lines were maintained in vitro by serial culture in phenol red-free RPMI Media 1640 supplemented with 10% fetal bovine serum (Gemini Bio-Products, Calbasas, Calif.), L-glutamine (2 mM), HEPES buffer ([…]), penicillin (100 units/mL), and streptomycin (100 μg/mL). […] Cells were maintained at 37° C. in a humidified atmosphere of 5% CO2 and 95% air.
These were then diluted 10× with autoclaved Millipore water.

Data set [2] is described as follows: Hydrolysis in aqueous phosphate buffer, HPLC. In kind it is physicochemical. The following applies: serum; read-out: estimated half-life. The protocol:
See Example 16. […] The DMSO was present to increase solubility.
Second, the kinetics of hydrolysis were measured in pH 6.0 phosphate buffer.
A 960 μL solution of pH 7.3 phosphate buffer was heated to 37° C. […] No change in the chromatography was observed if pH, 7.3 phosphate buffer was used as the eluent in place of pH 7.4 TEAA buffer.

The test system of the next data set is DU-145. Kind of data set: Prostate cancer cell cytotoxicity, crystal violet assay, DU-145. The data set is classed as cell-based, human. The following applies: Homo sapiens. As for the experimental part: (§8) Toxicity to the three prostate cancer cell lines, LNCaP, DU-145, and PC-3 were measured in two different media, RPMI-1640 and DMEM (Dulbecco's Modified Eagle Medium), both supplemented with 10% fetal bovine serum.
(§9) Cell lines were maintained in vitro in RPMI 1640 media or DMEM, each supplemented with 10% fetal bovine serum, 2 mM L-glutamine, 10 mM HEPES buffer, penicillin (100 units/mL) and streptomycin (100 μg/mL).
(§10) Cells were dissociated with trypsin/EDTA, counted, and suspended in growth media (RPMI or DMEM) to a concentration of 5.6×10^3 cells/mL. Cell suspensions were dispensed in 180 μL aliquots into 96-well tissue culture plates. […] Each 100× solution was diluted 10× in growth media (RPMI or DMEM), and a 20 μL aliquot of the resulting 10× solution was immediately (<10s) added to-the appropriate lane. Additionally, one lane was treated with 20 μL of 10% DMSO in growth media (no drug) and one lane was treated with 200 μL of 1.5 M Tris buffer (no cells). The cells were incubated with the drugs for 3 h at 37° C. The drug solutions were then removed and replaced with 200 μL of fresh media. The cells were incubated for 4 days (7 days for PC-3 cells in DMEM) at 37° C. in a humidified atmosphere of 5% CO2 and 95% air. Cell survival was determined using a crystal violet assay as described earlier (Fenick, D. J. et al (1997) J. Med. Chem. 40: 2452-2461).

A further data set concerns PC-3. The data set is described as follows: Prostate cancer cell cytotoxicity, crystal violet assay, PC-3. The conditions noted are these: Homo sapiens. In kind it is cell-based, human. As for the experimental part: as §8, §9, §10
A further data set concerns MCF-7 cells. The data set is described as follows: In vitro cytotoxicity, colony formation by crystal violet assay, MCF-7. As for the experimental part: as §1, §2, §3, §4, §5, §6, §7
1640 media containing 10% fetal bovine serum. The resulting 90% media/10% DMSO solutions (v/v) were incubated at 37° C. for 6h.

In another data set the test system is LNCaP. The data set is described as follows: Prostate cancer cell cytotoxicity, crystal violet assay, LNCaP. The data set is classed as cell-based, human. The following applies: Homo sapiens, LNCaP. The protocol:
as §8, §9, §10

[3] abbreviates: 50:50 DMSO:water (v/v), over 6 days.
Setting [4] is: relative to the respective parent drug.

As usually defined, the half-life is the time in which the quantity being followed falls by half.

pIC50: −log10 of the molar value. Like-named read-outs stand apart in the source and are kept apart here.

For the molecule “N-acetyl-3′-N,4′-O-methylenedaunorubicin”, in data set [1] (setting [3]), the degradation to daunorubicin was determined as 9% and the fraction remaining intact is listed as 91%. Moreover, the “degradation in DMSO solution” value in data set [1] (DMSO, after 2 h) is “no degradation”.

Turning to `COc1cccc2c1C(=O)c1c(O)c3c(c(O)c1C2=O)CC(O)(C(=O)CO)CC3OC1CC2C(OCN2CN2CO[C@@H]3C(C)O[C@H](OC4CC(O)(C(=O)CO)Cc5c(O)c6c(c(O)c54)C(=O)c4c(OC)cccc4C6=O)CC32)C(C)O1` (stereo partly drawn) [DOXF, bis(3′-N-(3′-N,4′-O-methylenedoxorubicinyl))methane], the pIC50 was 9.30 in the data set on MCF-7/ADR cells (Homo sapiens, NCI/ADR-RES, read-out: IC50 Values, MCF-7-ADR); 8.82 with DU-145 (DU-145, read-out: IC50 Values, DU-145/DMEM); 8.70 with DU-145 (DU-145, read-out: IC50 Values, DU-145/RPMI-1640); 8.35 in the data set on PC-3 (PC-3, read-out: IC50 Values, PC-3/DMEM); 9.30 with PC-3 (PC-3, read-out: IC50 Values, PC-3/RPMI-1640); 9.00 with MCF-7 cells (Homo sapiens, MCF7, read-out: IC50 Values, MCF-7). In addition, the pIC50 with LNCaP (read-out: IC50 Values, LNCaP/DMEM) is 9.30; with LNCaP (read-out: IC50 Values, LNCaP/RPMI-1640), 9.30. Also, the “fold higher cytotoxicity against MCF-7/ADR cells relative to the parent drug” value in the data set on MCF-7/ADR cells (setting [4]) is recorded as 10,000 fold. For the same molecule, in data set [2], the half-life was under 10 min. Besides, in the data set with MCF-7 cells (relative to daunorubicin and doxorubicin, respectively), the “times more cytotoxic against the MCF-7 cell line than the parent drug” value was 150 times. Further, the “fold more toxic to MCF-7 cells than the parent drug” value in the data set with MCF-7 cells (setting [4]) is 150 fold.
